Assay results reported in paper PMC9080259, “Dual-cycle immobilization to reuse both enzyme and support by reblossoming enzyme–inorganic hybrid nanoflowers” (RSC Advances, 2018).
Where a name gives a salt, the structure may show the parent alone.

Test system: T1, Bromelain
T1 construct: commercial native preparation
Test: absorbance at […] nm, hydrolysis
Assay type: biochemical
Details: free enzyme; 37 °C; pH not told; substrate of the kinetics taken from the activity assay

CCOC(=O)[C@H](CCCN=C(N)N)NC(=O)c1ccccc1 [N-Benzoyl-L-arginine ethyl ester hydrochloride]
Km: 930 ± 40 µM
